Assay results reported in ChEMBL document CHEMBL2046382, “Synthesis, biological evaluation of 5-carbomethoxymethyl-7-hydroxy-2-pentylchromone, 5-carboethoxymethyl-4',7-dihydroxyflavone and their analogues” (Bioorg Med Chem Lett, 2012).
In brackets after ≈: the same amount, converted by molar mass. Activity calls are given as the source filed them. The rule behind the calls is not given here.

Assays:
Bacillus subtilis [1] = test: Antibacterial activity against Bacillus subtilis MTCC 121 at 80 ug/ml by modified microtiter broth dilution method; type: functional, organism-based
[2] = Antioxidant activity of the compound assessed as inhibition of lipid peroxidation after 48 hrs; type: functional
Staphylococcus aureus [3] = test: Antibacterial activity against Staphylococcus aureus MTCC 2940 by modified microtiter broth dilution method; type: functional
[4] = Chemical stability of the compound in antioxidant reaction; type: physicochemical
Erythrocyte = test: Antioxidant activity in erythrocytes assessed as inhibition of hemolysis after 48 hrs; type: functional, cell-based
[5] = test system: Radical scavenging activity; test: Antioxidant activity assessed as DPPH free radical scavenging activity after 48 hrs; type: functional
Micrococcus luteus [6] = test: Antibacterial activity against Micrococcus luteus MTCC 2470 at 80 ug/ml by modified microtiter broth dilution method; type: functional, organism-based
Raoultella planticola [7] = test: Antibacterial activity against Klebsiella planticola MTCC 530 at 80 ug/ml by modified microtiter broth dilution method; type: functional, organism-based
Escherichia coli [8] = test: Antibacterial activity against Escherichia coli MTCC 739 at 80 ug/ml by modified microtiter broth dilution method; type: functional, organism-based
Staphylococcus aureus [9] = test: Antibacterial activity against Staphylococcus aureus MTCC 96 at 80 ug/ml by modified microtiter broth dilution method; type: functional, organism-based
[10] = Antioxidant activity assessed as superoxide radical scavenging activity after 48 hrs; type: functional
Pseudomonas aeruginosa [11] = test: Antibacterial activity against Pseudomonas aeruginosa MTCC 2453 at 80 ug/ml by modified microtiter broth dilution method; type: functional, organism-based
[12] = Antioxidant activity assessed as superoxide radical scavenging activity; type: functional
[13] = Antioxidant activity in erythrocytes assessed as inhibition of hemolysis; type: functional, cell-based; conditions: erythrocyte
[14] = Antioxidant activity of the compound assessed as inhibition of lipid peroxidation; type: functional
Escherichia coli [15] = test: Antibacterial activity against Escherichia coli MTCC 739 by modified microtiter broth dilution method; type: functional
[16] = test system: Radical scavenging activity; test: Antioxidant activity assessed as DPPH free radical scavenging activity; type: functional
Micrococcus luteus [17] = test: Antibacterial activity against Micrococcus luteus MTCC 2470 by modified microtiter broth dilution method; type: functional
Staphylococcus aureus [18] = test: Antibacterial activity against Staphylococcus aureus MTCC 96 by modified microtiter broth dilution method; type: functional
Raoultella planticola [19] = test: Antibacterial activity against Klebsiella planticola MTCC 530 by modified microtiter broth dilution method; type: functional
Bacillus subtilis [20] = test: Antibacterial activity against Bacillus subtilis MTCC 121 by modified microtiter broth dilution method; type: functional
Staphylococcus aureus [21] = test: Antibacterial activity against Staphylococcus aureus MTCC 2940 at 80 ug/ml by modified microtiter broth dilution method; type: functional, organism-based
NCI60 = test: Cytotoxicity against human NCI60 cells; type: functional, cell-based
Pseudomonas aeruginosa [22] = test: Antibacterial activity against Pseudomonas aeruginosa MTCC 2453 by modified microtiter broth dilution method; type: functional

Row | Compound | Activity (Bacillus subtilis [1]) | Activity [2] | MIC (Staphylococcus aureus [3]) | Stability [4] | Activity (Erythrocyte) | Activity [5] | Activity (Micrococcus luteus [6]) | Activity (Raoultella planticola [7]) | Activity (Escherichia coli [8]) | Activity (Staphylococcus aureus [9]) | Activity [10] | Activity (Pseudomonas aeruginosa [11]) | EC50 [12] | EC50 [13] | EC50 [14] | MIC (Escherichia coli [15]) | MIC (Micrococcus luteus [17]) | MIC (Raoultella planticola [19]) | MIC (Bacillus subtilis [20]) | MIC (Pseudomonas aeruginosa [22]) | further results
1 | COC(=O)Cc1cc(O)cc2oc(-c3ccccc3)cc(=O)c12 | inactive | inactive | 9 µg/mL (≈ 29 µM) | Unstable | inactive | inactive | inactive | inactive | inactive | inactive | inactive | inactive | – | – | – | – | – | – | – | – | –
2 | O=c1cc(-c2ccc(O)c(O)c2)oc2cc(O)cc(O)c12 [LUTEOLIN] | inactive | – | 18 µg/mL (≈ 62.9 µM) | – | – | – | – | inactive | – | – | – | inactive | 31.01 µg/mL (≈ 108 µM) | 122 µg/mL (≈ 426 µM) | 134.1 µg/mL (≈ 468 µM) | 4 µg/mL (≈ 14 µM) | 18 µg/mL (≈ 62.9 µM) | – | – | – | EC50 [16]: 44.18 µg/mL (≈ 154 µM); MIC (Staphylococcus aureus [18]): 9 µg/mL (≈ 31.4 µM)
3 | CCCCCc1cc(=O)c2c(CC(=O)OC)cc(O)cc2o1 [PESTALOTIOPSONE F] | inactive | inactive | 9 µg/mL (≈ 29.6 µM) | Unstable | inactive | inactive | inactive | – | inactive | inactive | inactive | inactive | – | – | – | – | – | 9 µg/mL (≈ 29.6 µM) | – | – | –
4 | CCOC(=O)Cc1cc(O)cc2oc(-c3ccc(O)cc3)cc(=O)c12 | – | – | – | – | – | – | – | – | – | inactive | – | inactive | 77.71 µg/mL (≈ 228 µM) | 151.1 µg/mL (≈ 444 µM) | 171.54 µg/mL (≈ 504 µM) | 9 µg/mL (≈ 26.4 µM) | 9 µg/mL (≈ 26.4 µM) | 9 µg/mL (≈ 26.4 µM) | 9 µg/mL (≈ 26.4 µM) | – | EC50 [16]: 71.11 µg/mL (≈ 209 µM); Activity (Staphylococcus aureus [21]): inactive
5 | COC(=O)Cc1cc(O)cc2oc(-c3ccc(C)cc3)cc(=O)c12 | – | inactive | 18 µg/mL (≈ 55.5 µM) | Unstable | inactive | inactive | – | – | – | – | inactive | – | – | – | – | 4 µg/mL (≈ 12.3 µM) | 18 µg/mL (≈ 55.5 µM) | 18 µg/mL (≈ 55.5 µM) | 4 µg/mL (≈ 12.3 µM) | 9 µg/mL (≈ 27.7 µM) | Activity (NCI60): inactive; MIC (Staphylococcus aureus [18]): 9 µg/mL (≈ 27.7 µM)
6 | COC(=O)Cc1cc(O)cc2oc(-c3cc(O)ccc3O)cc(=O)c12 | inactive | inactive | – | Unstable | inactive | inactive | – | inactive | – | inactive | inactive | – | 106.22 µg/mL (≈ 310 µM) | 209.56 µg/mL (≈ 612 µM) | 221.12 µg/mL (≈ 646 µM) | 18 µg/mL (≈ 52.6 µM) | 37 µg/mL (≈ 108 µM) | – | – | 18 µg/mL (≈ 52.6 µM) | EC50 [16]: 119.11 µg/mL (≈ 348 µM); Activity (Staphylococcus aureus [21]): inactive
7 | COC(=O)Cc1cc(O)cc2oc(-c3cc(O)c(O)c(O)c3)cc(=O)c12 | inactive | – | 9 µg/mL (≈ 25.1 µM) | – | – | – | inactive | – | inactive | inactive | – | inactive | 50.09 µg/mL (≈ 140 µM) | 139.76 µg/mL (≈ 390 µM) | 156.21 µg/mL (≈ 436 µM) | – | – | 9 µg/mL (≈ 25.1 µM) | – | – | EC50 [16]: 55.08 µg/mL (≈ 154 µM)
8 | COC(=O)Cc1cc(O)cc2oc(-c3ccc(OC)cc3)cc(=O)c12 | – | inactive | – | Unstable | inactive | inactive | inactive | inactive | – | inactive | inactive | – | – | – | – | 18 µg/mL (≈ 52.9 µM) | – | – | 9 µg/mL (≈ 26.4 µM) | 37 µg/mL (≈ 109 µM) | Activity (NCI60): inactive; Activity (Staphylococcus aureus [21]): inactive
9 | COC(=O)Cc1cc(O)cc2oc(-c3ccc(N)cc3)cc(=O)c12 | – | inactive | – | Unstable | inactive | inactive | inactive | inactive | inactive | inactive | inactive | inactive | – | – | – | – | – | – | 9 µg/mL (≈ 27.7 µM) | – | Activity (NCI60): inactive; Activity (Staphylococcus aureus [21]): inactive
10 | COC(=O)Cc1cc(O)cc2oc(-c3cccc(OC)c3Cl)cc(=O)c12 | inactive | inactive | – | Unstable | inactive | inactive | inactive | inactive | inactive | – | inactive | inactive | – | – | – | – | – | – | – | – | Activity (Staphylococcus aureus [21]): inactive; MIC (Staphylococcus aureus [18]): 9 µg/mL (≈ 24 µM)
11 | COC(=O)Cc1cc(O)cc2oc(-c3ccc(OC)c(O)c3)cc(=O)c12 | inactive | inactive | 37 µg/mL (≈ 104 µM) | Unstable | inactive | inactive | inactive | inactive | – | inactive | inactive | – | – | – | – | 18 µg/mL (≈ 50.5 µM) | – | – | – | 9 µg/mL (≈ 25.3 µM) | Activity (NCI60): inactive
12 | COC(=O)Cc1cc(O)cc2oc(-c3ccc(Cl)cc3)cc(=O)c12 | inactive | inactive | 75 µg/mL (≈ 218 µM) | Unstable | inactive | inactive | inactive | inactive | inactive | – | inactive | – | – | – | – | – | – | – | – | 37 µg/mL (≈ 107 µM) | MIC (Staphylococcus aureus [18]): 37 µg/mL (≈ 107 µM)
13 | COC(=O)Cc1cc(O)cc2oc(-c3ccc(O)c(OC)c3)cc(=O)c12 | – | inactive | 18 µg/mL (≈ 50.5 µM) | Unstable | inactive | inactive | – | – | – | – | inactive | – | – | – | – | 4 µg/mL (≈ 11.2 µM) | 18 µg/mL (≈ 50.5 µM) | 9 µg/mL (≈ 25.3 µM) | 4 µg/mL (≈ 11.2 µM) | 9 µg/mL (≈ 25.3 µM) | Activity (NCI60): inactive; MIC (Staphylococcus aureus [18]): 9 µg/mL (≈ 25.3 µM)
14 | COC(=O)Cc1cc(O)cc2oc(-c3ccc(O)cc3O)cc(=O)c12 | inactive | – | – | – | – | – | inactive | inactive | inactive | inactive | – | – | 60.9 µg/mL (≈ 178 µM) | Not Active | Not Active | – | – | – | – | 9 µg/mL (≈ 26.3 µM) | EC50 [16]: 60 µg/mL (≈ 175 µM); Activity (Staphylococcus aureus [21]): inactive
15 | COC(=O)Cc1cc(O)cc2oc(-c3cc(OC)c(OC)c(OC)c3)cc(=O)c12 | – | inactive | 18 µg/mL (≈ 45 µM) | Unstable | inactive | inactive | – | – | – | – | inactive | – | – | – | – | 18 µg/mL (≈ 45 µM) | 4 µg/mL (≈ 9.99 µM) | 9 µg/mL (≈ 22.5 µM) | 9 µg/mL (≈ 22.5 µM) | 18 µg/mL (≈ 45 µM) | MIC (Staphylococcus aureus [18]): 18 µg/mL (≈ 45 µM)
16 | COC(=O)Cc1cc(O)cc2occc(=O)c12 | – | inactive | – | Unstable | inactive | inactive | inactive | inactive | inactive | inactive | inactive | inactive | – | – | – | – | – | – | – | – | Activity (Staphylococcus aureus [21]): inactive
17 | O=C1O[C@H]([C@@H](O)CO)C(O)=C1O [ASCORBIC ACID] | – | – | – | – | – | – | – | – | – | – | – | – | 21.01 µg/mL (≈ 119 µM) | 119.87 µg/mL (≈ 681 µM) | 139.97 µg/mL (≈ 795 µM) | – | – | – | – | – | EC50 [16]: 40.28 µg/mL (≈ 229 µM)
18 | COC(=O)Cc1cc(O)cc2oc(-c3ccc([N+](=O)[O-])cc3)cc(=O)c12 | inactive | inactive | 18 µg/mL (≈ 50.7 µM) | Unstable | inactive | inactive | – | – | – | inactive | inactive | – | – | – | – | 37 µg/mL (≈ 104 µM) | 18 µg/mL (≈ 50.7 µM) | 9 µg/mL (≈ 25.3 µM) | 18 µg/mL (≈ 50.7 µM) | 9 µg/mL (≈ 25.3 µM) | –
19 | COC(=O)Cc1cc(O)cc2oc(-c3cc(OC)cc(OC)c3)cc(=O)c12 | – | inactive | 18 µg/mL (≈ 48.6 µM) | Unstable | inactive | inactive | – | – | – | – | inactive | – | – | – | – | 4 µg/mL (≈ 10.8 µM) | 9 µg/mL (≈ 24.3 µM) | 18 µg/mL (≈ 48.6 µM) | 18 µg/mL (≈ 48.6 µM) | 9 µg/mL (≈ 24.3 µM) | Activity (NCI60): inactive; MIC (Staphylococcus aureus [18]): 9 µg/mL (≈ 24.3 µM)
20 | COC(=O)Cc1cc(O)cc2oc(-c3ccc(O)c(O)c3)cc(=O)c12 | inactive | – | 9 µg/mL (≈ 26.3 µM) | – | – | – | inactive | inactive | inactive | inactive | – | – | 44.08 µg/mL (≈ 129 µM) | 127.98 µg/mL (≈ 374 µM) | 142 µg/mL (≈ 415 µM) | – | – | – | – | 9 µg/mL (≈ 26.3 µM) | EC50 [16]: 49.99 µg/mL (≈ 146 µM)
